Biological target: SYK (Homo sapiens, UniProt P43405)
Assay: In vitro kinase inhibition assay
Type: biochemical
Conditions: for remained SYK activities: inhibitor at 5 μM

IC50 [nM] | remained SYK activities [%] | SMILES
1720 | 37.0 ± 2.3 | Cc1coc2c1C(=O)C(=O)c1c-2ccc2c(C)cccc12 [TanI, tanshinone I]
3200 | 44.7 ± 3.3 | Cc1coc2c1C(=O)C(=O)c1c-2ccc2c1CCCC2(C)C [TanIIA, tanshinoneIIA]
